# Assay results as given in ChEMBL document CHEMBL1759982, “Hybrid compounds as new Bcr/Abl inhibitors” (Bioorg Med Chem Lett, 2011).
# pIC50: −log10 of the molar value. Activity calls are given as the source filed them. The rule behind the calls is not given here.
# Tests used:
# [1] = test system: K562; experiment: Induction of apoptosis in human K562 cells assessed as early apoptotic cells at 100 nM using annexin V-propidium iodide and annexin V staining by flow cytometry (reference value: 3.34%); type: functional
# [2] = test system: K562; experiment: Induction of apoptosis in human K562 cells assessed as early apoptotic cells at 50 nM using annexin V-propidium iodide and annexin V staining by flow cytometry (reference value: 3.34%); type: functional
# [3] = test system: K562; experiment: Antiproliferative activity against human imatinib-resistant K562 cells; type: functional, cell-based
# [4] = test system: K562; experiment: Cell cycle arrest in human K562 cells assessed as accumulation at G2/M1 phase at 20 nM by Flow cytometry (reference value: 4.43%); type: functional
# [5] = test system: K562; experiment: Cell cycle arrest in human K562 cells assessed as accumulation at S phase at 20 nM by Flow cytometry (reference value: 46.15%); type: functional
# [6] = test system: K562; experiment: Induction of apoptosis in human K562 cells assessed as pre-necrotic cells at 50 nM using annexin V-propidium iodide and annexin V staining by flow cytometry (reference value: 1.42%); type: functional
# [7] = test system: K562; experiment: Induction of apoptosis in human K562 cells assessed as late apoptotic cells at 50 nM using annexin V-propidium iodide and annexin V staining by flow cytometry (reference value: […]%); type: functional
# [8] = test system: K562; experiment: Cell cycle arrest in human K562 cells assessed as accumulation at S phase at 100 nM by Flow cytometry (reference value: 46.15%); type: functional
# [9] = test system: K562; experiment: Antiproliferative activity against human K562 cells; type: functional, cell-based
# [10] = molecular target: Bcr/Abl fusion protein (Homo sapiens, UniProt P00519); experiment: Inhibition of Bcr/Abl by FRET-based Z-lyte assay; type: protein assay
# [11] = test system: K562; experiment: Induction of apoptosis in human K562 cells assessed as viable cells at 50 nM using annexin V-propidium iodide and annexin V staining by flow cytometry (reference value: 87.02%); type: functional; conditions: read-out: Activity
# [12] = test system: K562; experiment: Cell cycle arrest in human K562 cells assessed as accumulation at S phase at 50 nM by Flow cytometry (reference value: 46.15%); type: functional
# [13] = test system: K562; experiment: Induction of apoptosis in human K562 cells assessed as pre-necrotic cells at 100 nM using annexin V-propidium iodide and annexin V staining by flow cytometry (reference value: 1.42%); type: functional
# [14] = test system: K562; experiment: Cell cycle arrest in human K562 cells assessed as accumulation at G2/M1 phase at 50 nM by Flow cytometry (reference value: 4.43%); type: functional
# [15] = test system: K562; experiment: Induction of apoptosis in human K562 cells assessed as late apoptotic cells at 100 nM using annexin V-propidium iodide and annexin V staining by flow cytometry (reference value: […]%); type: functional
# [16] = Antiproliferative activity against human KU812 cells; type: functional, cell-based
# [17] = test system: K562; experiment: Cell cycle arrest in human K562 cells assessed as accumulation at G2/M1 phase at 100 nM by Flow cytometry (reference value: 4.43%); type: functional
# [18] = molecular target: Bcr/Abl fusion protein (Homo sapiens) (UniProt P00519+P11274); experiment: Inhibition of Bcr/Abl autophosphorylation in human K562 cells after 4 hrs by Western blotting; type: cell-based
# [19] = test system: K562; experiment: Cell cycle arrest in human K562 cells assessed as accumulation at G0/G1 phase at 50 nM by Flow cytometry (reference value: 49.42%); type: functional
# [20] = test system: K562; experiment: Induction of apoptosis in human K562 cells assessed as early apoptotic cells at 20 nM using annexin V-propidium iodide and annexin V staining by flow cytometry (reference value: 3.34%); type: functional
# [21] = test system: K562; experiment: Induction of apoptosis in human K562 cells assessed as late apoptotic cells at 20 nM using annexin V-propidium iodide and annexin V staining by flow cytometry (reference value: […]%); type: functional
# [22] = test system: K562; experiment: Induction of apoptosis in human K562 cells assessed as viable cells at 100 nM using annexin V-propidium iodide and annexin V staining by flow cytometry (reference value: 87.02%); type: functional; conditions: read-out: Activity
# [23] = test system: K562; experiment: Induction of apoptosis in human K562 cells assessed as pre-necrotic cells at 20 nM using annexin V-propidium iodide and annexin V staining by flow cytometry (reference value: 1.42%); type: functional
# [24] = test system: K562; experiment: Cell cycle arrest in human K562 cells assessed as accumulation at G0/G1 phase at 100 nM by Flow cytometry (reference value: 49.42%); type: functional
# [25] = test system: K562; experiment: Cell cycle arrest in human K562 cells assessed as accumulation at G0/G1 phase at 20 nM by Flow cytometry (reference value: 49.42%); type: functional
# [26] = test system: K562; experiment: Induction of apoptosis in human K562 cells assessed as viable cells at 20 nM using annexin V-propidium iodide and annexin V staining by flow cytometry (reference value: 87.02%); type: functional; conditions: read-out: Activity
# Bcr/Abl fusion protein, sequence (P00519 whole entry, the tested form may be a part): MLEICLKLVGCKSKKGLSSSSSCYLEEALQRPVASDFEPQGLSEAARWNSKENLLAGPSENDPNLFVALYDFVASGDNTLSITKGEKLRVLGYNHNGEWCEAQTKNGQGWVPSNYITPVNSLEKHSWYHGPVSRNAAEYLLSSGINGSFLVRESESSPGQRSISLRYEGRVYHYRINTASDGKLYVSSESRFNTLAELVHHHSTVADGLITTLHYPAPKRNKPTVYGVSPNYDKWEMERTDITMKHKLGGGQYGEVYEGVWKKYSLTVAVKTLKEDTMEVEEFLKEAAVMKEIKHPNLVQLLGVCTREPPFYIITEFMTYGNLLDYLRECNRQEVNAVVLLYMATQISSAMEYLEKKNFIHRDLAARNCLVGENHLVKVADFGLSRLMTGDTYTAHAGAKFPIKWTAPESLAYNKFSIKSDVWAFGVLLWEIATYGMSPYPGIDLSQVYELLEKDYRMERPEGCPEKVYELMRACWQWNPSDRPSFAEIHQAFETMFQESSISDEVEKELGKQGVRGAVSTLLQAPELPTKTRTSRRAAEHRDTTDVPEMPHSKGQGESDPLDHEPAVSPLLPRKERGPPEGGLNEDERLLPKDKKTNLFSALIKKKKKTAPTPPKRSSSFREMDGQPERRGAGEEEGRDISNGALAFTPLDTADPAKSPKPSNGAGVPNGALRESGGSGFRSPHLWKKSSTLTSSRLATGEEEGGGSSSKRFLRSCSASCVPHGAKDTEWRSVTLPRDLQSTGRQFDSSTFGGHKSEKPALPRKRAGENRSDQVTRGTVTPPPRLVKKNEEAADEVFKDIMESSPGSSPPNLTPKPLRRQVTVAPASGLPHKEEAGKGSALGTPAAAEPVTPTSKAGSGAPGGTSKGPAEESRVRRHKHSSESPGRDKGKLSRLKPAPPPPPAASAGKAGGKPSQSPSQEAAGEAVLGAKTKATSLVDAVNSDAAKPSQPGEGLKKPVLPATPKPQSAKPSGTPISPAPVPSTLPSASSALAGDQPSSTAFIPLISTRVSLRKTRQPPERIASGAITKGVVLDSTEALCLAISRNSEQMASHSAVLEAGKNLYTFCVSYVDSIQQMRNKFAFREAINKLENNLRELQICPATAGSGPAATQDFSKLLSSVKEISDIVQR
# Bcr/Abl fusion protein, sequence (P11274 whole entry, further chain, the tested form may be a part): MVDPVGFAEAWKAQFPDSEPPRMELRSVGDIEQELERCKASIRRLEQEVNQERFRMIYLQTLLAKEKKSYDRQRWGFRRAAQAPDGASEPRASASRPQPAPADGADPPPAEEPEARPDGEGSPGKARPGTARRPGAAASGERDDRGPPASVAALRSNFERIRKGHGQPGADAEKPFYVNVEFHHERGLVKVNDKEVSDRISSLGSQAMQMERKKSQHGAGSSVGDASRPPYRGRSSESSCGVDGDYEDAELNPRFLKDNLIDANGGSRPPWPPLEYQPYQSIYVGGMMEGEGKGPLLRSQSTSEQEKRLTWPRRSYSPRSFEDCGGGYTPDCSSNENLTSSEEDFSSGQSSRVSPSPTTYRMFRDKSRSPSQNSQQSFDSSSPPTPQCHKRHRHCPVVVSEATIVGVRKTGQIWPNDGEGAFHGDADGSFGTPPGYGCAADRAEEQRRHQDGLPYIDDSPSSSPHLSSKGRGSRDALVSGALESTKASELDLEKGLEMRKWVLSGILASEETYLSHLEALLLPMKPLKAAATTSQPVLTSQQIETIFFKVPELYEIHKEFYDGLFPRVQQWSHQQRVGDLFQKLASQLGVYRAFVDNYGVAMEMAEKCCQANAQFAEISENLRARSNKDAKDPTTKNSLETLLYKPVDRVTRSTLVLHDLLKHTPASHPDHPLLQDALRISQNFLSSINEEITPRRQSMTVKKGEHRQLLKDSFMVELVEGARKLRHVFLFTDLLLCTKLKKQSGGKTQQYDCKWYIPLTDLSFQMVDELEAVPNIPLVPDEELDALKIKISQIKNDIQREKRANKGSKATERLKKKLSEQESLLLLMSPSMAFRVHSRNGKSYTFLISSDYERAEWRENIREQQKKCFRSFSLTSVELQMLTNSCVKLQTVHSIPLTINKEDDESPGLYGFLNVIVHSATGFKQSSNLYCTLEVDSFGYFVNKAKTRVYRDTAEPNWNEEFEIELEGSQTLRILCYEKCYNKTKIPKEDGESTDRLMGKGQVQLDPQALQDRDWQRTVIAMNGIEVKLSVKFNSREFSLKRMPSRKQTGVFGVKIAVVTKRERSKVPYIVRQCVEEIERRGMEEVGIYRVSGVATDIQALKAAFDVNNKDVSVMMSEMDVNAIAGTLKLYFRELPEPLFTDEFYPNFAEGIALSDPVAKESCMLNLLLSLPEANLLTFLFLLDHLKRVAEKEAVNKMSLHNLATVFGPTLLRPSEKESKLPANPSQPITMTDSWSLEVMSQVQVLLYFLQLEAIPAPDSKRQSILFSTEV
# Bcr/Abl fusion protein (Homo sapiens), sequence (P00519 whole entry, looked up, the tested form may be a part): as the sequence (P00519 whole entry, the tested form may be a part) above
# Bcr/Abl fusion protein (Homo sapiens), sequence (P11274 whole entry, looked up, the tested form may be a part): as the sequence (P11274 whole entry, further chain, the tested form may be a part) above
structure (smiles),measurement,setting,value
Cc1cn(-c2cc(NC(=O)c3ccc(C)c(Nc4nc(-c5cccnc5)cs4)c3)cc(C(C)(C)C)c2)cn1,Activity,[1],11.11%
same,Activity,[2],6.87%
same,pIC50,[3],6.19
same,Activity,[4],2.15%
same,Activity,[5],42.66%
same,Activity,[6],3.11%
same,Activity,[7],16.34%
same,Activity,[8],24.47%
same,pIC50,[9],8.00
same,pIC50,[10],7.70
same,viability at 0.05 µM,[11],73.8%
same,Activity,[12],30.45%
same,Activity,[13],5.18%
same,Activity,[14],0.21%
same,Activity,[15],27.04%
same,pIC50,[16],7.96
same,Activity,[17],0%
same,inhibition,[18],Active
same,Activity,[19],69.3%
same,Activity,[20],5.06%
same,Activity,[21],8.15%
same,viability at 0.1 µM,[22],56.7%
same,Activity,[23],1.14%
same,Activity,[24],75.53%
same,Activity,[25],55.19%
same,viability at 0.02 µM,[26],95.7%
Cc1cn(-c2cc(NC(=O)c3ccc(C)c(Nc4nc(-c5cccnc5)cs4)c3)cc(C(F)(F)F)c2)cn1,pIC50,[3],5.74
same,pIC50,[9],7.55
same,pIC50,[10],6.17
same,pIC50,[16],7.52
Cc1ccc(NC(=O)c2ccc(CN3CCN(C)CC3)cc2)cc1Nc1nccc(-c2cccnc2)n1 [IMATINIB],pIC50,[3],8.22
same,pIC50,[9],6.42
same,pIC50,[16],6.47
Cc1ccc(C(=O)Nc2cccc(C(F)(F)F)c2)cc1Nc1nc(-c2cccnc2)cs1,pIC50,[3],5.84
same,pIC50,[9],5.52
same,pIC50,[10],< 5.00
same,pIC50,[16],5.91
Cc1ccc(C(=O)Nc2cc(-c3cn(C)nn3)cc(C(F)(F)F)c2)cc1Nc1nc(-c2cccnc2)cs1,pIC50,[3],5.45
same,pIC50,[9],7.24
same,pIC50,[10],6.56
same,pIC50,[16],7.05
Cc1ccc(C(=O)Nc2cc(-n3ccnc3)cc(C(F)(F)F)c2)cc1Nc1nc(-c2cccnc2)cs1,pIC50,[3],5.67
same,pIC50,[9],7.55
same,pIC50,[10],6.29
same,pIC50,[16],7.44
Cc1ncn(-c2cc(NC(=O)c3ccc(C)c(Nc4nc(-c5cccnc5)cs4)c3)cc(C(F)(F)F)c2)n1,pIC50,[3],5.79
same,pIC50,[9],7.59
same,pIC50,[10],6.32
same,pIC50,[16],7.42
Cc1cn(-c2cc(NC(=O)c3ccc(C)c(Nc4nccc(-c5cccnc5)n4)c3)cc(C(F)(F)F)c2)cn1 [NILOTINIB],pIC50,[3],6.59
same,pIC50,[9],8.19
same,pIC50,[16],8.47
Cc1cn(-c2cc(NC(=O)c3ccc(C)c(Nc4nc(-c5cccnc5)cs4)c3)cc(C(C)C)c2)cn1,pIC50,[3],5.54
same,pIC50,[9],7.51
same,pIC50,[10],6.75
same,pIC50,[16],7.29
Cc1cn(-c2cc(NC(=O)c3ccc(C)c(Nc4nc(-c5cccnc5)cs4)c3)cc(C34CC5CC(CC(C5)C3)C4)c2)cn1,pIC50,[3],4.93
same,pIC50,[9],5.97
same,pIC50,[10],< 5.70
same,pIC50,[16],5.55
Cc1cn(-c2cc(NC(=O)c3cccc(Nc4nc(-c5cccnc5)cs4)c3)cc(C(F)(F)F)c2)cn1,pIC50,[3],5.76
same,pIC50,[9],5.50
same,pIC50,[10],5.42
same,pIC50,[16],5.56
Cc1ccc(C(=O)Nc2cc(-c3cnn(C)c3)cc(C(F)(F)F)c2)cc1Nc1nc(-c2cccnc2)cs1,pIC50,[3],5.27
same,pIC50,[9],7.57
same,pIC50,[10],6.31
same,pIC50,[16],7.57
Cc1cn(-c2cc(Cl)cc(NC(=O)c3ccc(C)c(Nc4nc(-c5cccnc5)cs4)c3)c2)cn1,pIC50,[3],5.63
same,pIC50,[9],6.09
same,pIC50,[10],5.89
same,pIC50,[16],6.29
Cc1cc(NC(=O)c2ccc(C)c(Nc3nc(-c4cccnc4)cs3)c2)cc(-n2cnc(C)c2)c1,pIC50,[3],5.48
same,pIC50,[9],6.35
same,pIC50,[10],6.11
same,pIC50,[16],6.06
CCc1ccc(C(=O)Nc2cc(-n3cnc(C)c3)cc(C(F)(F)F)c2)cc1Nc1nc(-c2cccnc2)cs1,pIC50,[3],5.57
same,pIC50,[9],5.80
same,pIC50,[10],5.26
same,pIC50,[16],6.02
